Reference: patent EP3381897A1, “DERIVATIVES OF THE DISODIUM 2,2'-{CARBONYLBIS[IMINO-3,1-PHENYLENECARBONYLIMINO(1-METHYL-1H-PYRROLE-4,2-DIYL)CARBONYLIMINO]}DINAPHTHALENE-1,5-DISULFONATE SALT AND RELATED COMPOUNDS AS HEPARANASE INHIBITORS FOR THE TREATMENT OF CANCER” (Leadiant Biosciences SA, priority 2017, dated 2018)
Counter-ions that a name gives are not always drawn.

How the values were obtained:
[1] = test system: HT1080 (human fibrosarcoma); assay: Cell adhesion assay on matrigel coated wells; type: cell-based; details: percent of adhesion with respect to the control (100%)
Description: Cell surface, non-integrin molecules such as heparan sulfate proteoglycans (HSPGs) may be involved in the regulation of early adhesive stages of cell-ECM interactions. A cell adhesion assay has been employed to determine if the newly designed heparanase inhibitors were able to interfere with adhesion properties of cancer cells. […] Then cells were collected, washed in complete medium, and added to matrigel coated wells in triplicate, at previously identified optimal seeding density, and incubated at 37 °C in complete medium for times ranging from 15 minutes to 4h, according to the cell line. […] Optical density was measured at 560 nm by Victor 3 (Perkin-Elmer) plate analyzer. Each experiment was repeated three times. Table 4. […] In Invasion assay, data were expressed as the percent invasion (range) with respect to cell migration through uncoated insert membrane.

FGF-1 = assay: Real-Time quantitative PCR of mRNA gene expression in HT1080 cells; type: cell-based, human; details: 2.5 uM, 24 h
FGF-2 = assay: as above; type: cell-based, human; details: 2.5 uM, 24 h
VEGF = assay: as above; type: cell-based, human; details: 2.5 uM, 24 h
MMP-9 = assay: as above; type: cell-based, human; details: 2.5 uM, 24 h
HPSE-1 = details: 2.5µM; HT1080 cells
Description: To evaluate the effect of heparanase inhibitors on the tumor transcription of genes encoding for proangiogenic factors, such as FGF1/2, VEGF, MMP-9, HSPE-1, the relative mRNA levels were analyzed by quantitative Real-Time Quantitative PCR. To perform the assay, HT1080 (human fibrosarcoma) cells were cultured in complete medium containing 10%FCS (fetal calf serum). Cells were plated in 24-well plates and treated at fixed concentration (i.e., highest non-toxic concentration) of test compounds. After 24 h, cells were detached, collected and total RNA extracted by RNeasy Mini Kit (QIAGEN). Following reverse transcription step, FGF1/2, VEGF, MMP-9, HSPE-1 mRNA levels, were quantified by qPCR using the advanced Universal SYBR Green Supermix (Bio Rad) and ABI PRISM 7900HT Thermal Cycler System (Perkin Elmer), according to the manufacturer's instructions. […] Relative levels of RNA were calculated using the ddCt method. Standard curve and sample data were run in duplicate.

[2] = test system: HT1080 (human fibrosarcoma); assay: SRB Cell Cytotoxicity Assay; type: cell-based
Description: (§1) SRB Cell Cytotoxicity Assay is an assay based upon the quantitative staining of cellular proteins by sulforhodamine B (SRB). This assay can be used for high-throughput drug screening ([…], Nature Protocol. 2006, 1, 112). Sulforhodamine B is an anionic aminoxanthene dye that forms an electrostatic complex with the basic amino acid residues of proteins under moderately acid conditions, which provides a sensitive linear response. […] Inhibition of cell proliferation was then measured by the classical colorimetric SRB Cell Cytotoxicity assay. Absorbance was measured by spectrophotometer at a wavelength of 510 nm and cell proliferation was determined as percent with respect to control cells (cells treated with the vehicle alone). EC50 values were then determined by GraphPad Prism.

[3] = test system: U2OS (human osteosarcoma); assay: SRB Cell Cytotoxicity Assay; type: cell-based
Description: as §1

[4] = test system: U87MG (human glioblastoma astrocytoma); assay: SRB Cell Cytotoxicity Assay; type: cell-based
Description: as §1

[5] = test system: HT1080 (human fibrosarcoma); assay: Matrigel cell invasion assay; type: cell-based; details: HT-1080
Description: Heparanase inhibitors were then evaluated for their activity on the invasive potential of HT1080 (human fibrosarcoma) human cell lines, using the Matrigel cell invasion assay which allows to assess the cell invasion ability of malignant and normal cells. Invasion assay was performed using BioCoat cell culture inserts (BioCoat 8.0µm PET Membrane 24 Well Permeable Supports, Corning). Filters were coated with 100 µl of 300 µg/ml Matrigel dissolved in coating buffer (0.01 M Tris pH 8.0, 0.7% NaCl) (Becton-Dickinson Sciences). DMEM (Dulbecco's Modified Eagle's Medium) containing 5% FBS was added to the lower chambers. Cells were pre-treated with heparanase inhibitors for 24 h, detached and added to the upper chambers in media containing the inhibitors. Cells were allowed to invade for 24 h at 37°C in a CO2 incubator and then unmigrated cells were removed from the upper chamber with a cotton swab. […] Test compounds were analyzed at fixed concentration for several fields, in duplicates. Activity of test compounds was compared to the reference compound. Activity of most interesting compound was confirmed in a second cell invasion assay. Data were expressed as the percent invasion with respect to cell migration through uncoated insert membrane. (Table 4) Table 4. […] In Invasion assay, data were expressed as the percent invasion (range) with respect to cell migration through uncoated insert membrane.

SMILES | Adhesion Assay (%) HT1080; 2.5 µM ([1]; 2.5 µM) | Gene Expression (% mRNA vs. control) FGF-1 (FGF-1) | Gene Expression (% mRNA vs. control) FGF-2 (FGF-2) | Gene Expression (% mRNA vs. control) VEGF (VEGF) | Gene Expression (% mRNA vs. control) MMP-9 (MMP-9) | silencing of heparanase gene (in words) (HPSE-1) | further results
Cn1cc(NC(=O)Nc2cc(C(=O)Nc3cc(C(=O)Nc4ccc5c(S(=O)(=O)O)cccc5c4S(=O)(=O)O)n(C)c3)n(C)c2)cc1C(=O)Nc1cc(C(=O)Nc2ccc3c(S(=O)(=O)O)cccc3c2S(=O)(=O)O)n(C)c1 [FCE27266, disodium 2,2'-{carbonylbis[imino(1-methyl-1H-pyrrole-4,2-diyl)carbonylimino(1-methyl-1H-pyrrole-4,2-diyl)carbonylimino]}dinaphthalene-1,5-disulfonate salt] | ∼ 93% | ∼ 44% | ∼ 86% | ∼ 100% | ∼ 100% | almost complete silencing of heparanase gene | 
Cn1cc(NC(=O)Nc2cc(C(=O)Nc3cccc(C(=O)Nc4ccc5c(S(=O)(=O)O)cccc5c4S(=O)(=O)O)c3)n(C)c2)cc1C(=O)Nc1cccc(C(=O)Nc2ccc3c(S(=O)(=O)O)cccc3c2S(=O)(=O)O)c1 [Example 6, Disodium 2,2'-{carbonylbis[imino(1-methyl-1H-pyrrole-4,2-diyl)carbonylimino-3,1-phenylenecarbonylimino]}dinaphthalene-1,5-disulfonate salt] | ∼ 86% | ∼ 87% | ∼ 98% | ∼ 85% | ∼ 80% | almost complete silencing of heparanase gene | 
Cc1ccc(C(=O)Nc2ccc(S(=O)(=O)O)c3cc(S(=O)(=O)O)cc(S(=O)(=O)O)c23)cc1NC(=O)c1cccc(NC(=O)Nc2cccc(C(=O)Nc3cc(C(=O)Nc4ccc(S(=O)(=O)O)c5cc(S(=O)(=O)O)cc(S(=O)(=O)O)c45)ccc3C)c2)c1 [Suramin, suramin] |  |  |  |  |  |  | interference with the cell growth (in words) ([2]; HT1080, tested up to 2.5 µM): do not interfere with the cell growth; IC50 ([2]; Homo sapiens, HT-1080, 72h treatment, read-out: Concentration of test compounds at which the cell growth is inhibited by 50 % HT1080): > 2.5 µM; IC50 ([3]; Homo sapiens, 72h treatment, read-out: Concentration of test compounds at which the cell growth is inhibited by 50 % U2OS): > 2.5 µM; interference with the cell growth (in words) ([3]; tested up to 2.5 µM): do not interfere with the cell growth; IC50 ([4]; Homo sapiens, U-87 MG, 72h treatment, read-out: Concentration of test compounds at which the cell growth is inhibited by 50 % U87MG): > 2.5 µM; interference with the cell growth (in words) ([4]; U87MG, tested up to 2.5 µM): do not interfere with the cell growth; inhibition at 2.5 µM [5]: < 50%; Adhesion Assay (%) HT1080; 2.5 µM ([1]; Reference compound (Suramin) at 10 µM according to b319): ∼ 100%
Cn1cc(NC(=O)c2cccc(NC(=O)Nc3cccc(C(=O)Nc4cc(C(=O)Nc5ccc6c(S(=O)(=O)O)cccc6c5S(=O)(=O)O)n(C)c4)c3)c2)cc1C(=O)Nc1ccc2c(S(=O)(=O)[O-])cccc2c1S(=O)(=O)[O-].[Na+].[Na+] [Example 1, Disodium 2,2'-{carbonylbis[imino-3,1-phenylenecarbonylimino(1-methyl-1H-pyrrole-4,2-diyl)carbonylimino]}dinaphthalene-1,5-disulfonate salt] | ∼ 86% |  |  |  |  |  | 
O=C(Nc1cccc(C(=O)Nc2cc(C(=O)Nc3ccc4c(S(=O)(=O)[O-])cccc4c3S(=O)(=O)[O-])n(C3CC3)c2)c1)Nc1cccc(C(=O)Nc2cc(C(=O)Nc3ccc4c(S(=O)(=O)O)cccc4c3S(=O)(=O)O)n(C3CC3)c2)c1.[Na+].[Na+] [Example 2, Disodium 2,2'-{carbonylbis[imino-3,1-phenylenecarbonylimino(1-cyclopropyl-1H-pyrrole-4,2-diyl)carbonylimino]}dinaphthalene-1,5-disulfonate salt] | ∼ 88% |  |  |  |  |  | 
